Test results as given in PMC11721736, “Synthesis of Novel Benzothiazole–Profen Hybrid Amides as Potential NSAID Candidates” (Molecules, 2024).
Values joined by “and” are separate entries in the source; they are usually repeats but may differ in a detail not shown here. Equal values may be shown once.

Assays:
[1] = Hydrogen peroxide scavenging activity (HPSA); details: 10 min at 37 °C, absorbance at 230 nm
Description: The Manolov et al. approach was used to evaluate the capacity to scavenge hydrogen peroxide. A 43 mM solution of H2O2 was prepared in a potassium phosphate buffer solution (0.2 M, pH 7.4). The analysis of the samples was carried out as follows: in test tubes, 0.6 mL H2O2 (43 mM), 1 mL sample/standard of different concentrations (20–1000 µg/mL), and 2.4 mL potassium phosphate buffer solution were mixed. The mixture was stirred and incubated in the dark for 10 min at 37 °C. Absorbance was measured at 230 nm with a spectrophotometer (Camspec M508, Leeds, UK) against a blank solution containing phosphate buffer and H2O2 without the sample. Ascorbic acid and quercetin were used as standards. The percentage HPSA of the samples was evaluated by comparing them to a blank sample and was calculated using the following formula:(1) I,%(HPSA)=Ablank−(ATS−ACS)/Ablank×100 where Ablank is the absorbance of the blank sample, ACS is the absorbance of the control sample, and ATS is the absorbance of the test sample.

[2] = Hydroxyl radical scavenging activity (HRSA); details: 1 h at 37 °C, absorbance at 510 nm
Description: Hydroxyl radical scavenging activities of different fractions of 2-ABT-profenes were determined according to the method described by Guo [47]. The scavenging of hydroxyl radicals was performed as follows: 0.3 mL sodium salicylate (20 mM), 1 mL FeSO4 (1.5 mM), 1 mL sample/standard of different concentrations (20–1000 µg/mL), and 0.7 mL H2O2 (6 mM) were mixed immediately. Then, the reaction tubes were put in a 37 °C water bath for 1 h, and the absorbance of the mixture was recorded at 510 nm against a blank. We used standards with proven high antioxidant activity such as ascorbic acid and quercetin. The hydroxyl radical scavenging ability was calculated as follows:(2) I,%(HRSA)=Ablank−Asample/Ablank×100 where Ablank is the absorbance without samples and Asample is the absorbance in the presence of the samples.

[3] = Lipophilicity as RM values by reversed-phase thin-layer chromatography; type: physicochemical; details: reversed-phase TLC, dimensionless
Text: Lipophilicity can be evaluated through calculations or experimental methods. In our study, we measured the lipophilicity of the synthesized 2-ABT derivatives using a practical method: reversed-phase thin-layer chromatography, as described by Hadjipavlou-Litina. The lipophilicity increased in the following order based on the experimentally obtained RM values: 3a (1.629) < […] < 3e (1.736) < 3b (1.941) < 3c (2.02). Compound 3c is the most lipophilic experimentally, followed by 3b, while 3a is the least lipophilic.
The determination of lipophilicity of 2-ABT derivatives was estimated according to the method reported by Pontiki and Hadjipavlou-Litina.

human albumin = biological target: T1, human albumin (Homo sapiens, UniProt P02768); assay: Inhibition of albumin denaturation (IAD), in vitro anti-inflammatory activity; type: biochemical; details: human albumin 1%, heated at 70 °C for 15 min, turbidity at 660 nm; read-out: IAD IC50 ± SD (converted)
T1 construct: purchased BB-NCIPD Ltd., Sofia, Bulgaria Human albumin 20%—BB, 200 g/L
Description: In vitro analysis of anti-inflammatory activity was assessed as the inhibition of albumin denaturation (IAD). The analysis was performed according to Manolov’s method, with minor modifications. The experiment was performed with human albumin. The solution of albumin (1%) was prepared in distilled water (pH 7.4). Test samples/standards were first dissolved in 1.2 mL of DMSO and then supplemented with 1% Tween 80 in PBS so that the final concentration of the stock solution was 1000 μg/mL. Then, a series of working solutions with different concentrations (20–500 μg/mL) in 1% Tween 80/PBS were prepared. The reaction mixture contained a 2 mL test sample/standard of different concentrations and 1 mL albumin (1%). The mixture was incubated at 37 °C for 15 min and then heated at 70 °C for 15 min in a water bath. After cooling, the turbidity was measured at 660 nm with a spectrophotometer (Camspec M508, Leeds, UK). Ibuprofen was used as a standard. The experiment was performed three times. The percentage inhibition of albumin denaturation (IAD) was calculated against the control. The control sample consisted of the same concentration of albumin dissolved in distilled water. (3) %IAD=Ablank−Asample/Ablank×100

T1 sequence (P02768 25-609): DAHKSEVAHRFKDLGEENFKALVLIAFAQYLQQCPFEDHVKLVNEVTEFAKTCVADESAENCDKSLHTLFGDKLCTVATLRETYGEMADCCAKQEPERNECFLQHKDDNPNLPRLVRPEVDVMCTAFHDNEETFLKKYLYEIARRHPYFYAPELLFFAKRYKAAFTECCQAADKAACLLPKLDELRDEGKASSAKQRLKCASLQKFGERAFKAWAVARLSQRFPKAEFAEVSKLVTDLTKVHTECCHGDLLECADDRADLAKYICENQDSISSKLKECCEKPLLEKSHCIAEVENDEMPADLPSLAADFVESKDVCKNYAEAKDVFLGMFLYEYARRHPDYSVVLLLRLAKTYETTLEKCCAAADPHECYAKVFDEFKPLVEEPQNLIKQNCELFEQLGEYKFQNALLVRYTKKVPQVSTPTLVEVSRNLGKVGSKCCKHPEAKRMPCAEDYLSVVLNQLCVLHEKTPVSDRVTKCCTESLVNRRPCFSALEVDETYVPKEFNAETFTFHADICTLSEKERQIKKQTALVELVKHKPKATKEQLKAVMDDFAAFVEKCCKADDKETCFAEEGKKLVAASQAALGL

SMILES	HPSA IC50 ± SD [1]	HRSA IC50 ± SD [2]	RM ± SD [3]	IC50 (human albumin)
O=C1O[C@H]([C@@H](O)CO)C(O)=C1O [AA, ascorbic acid, reference compound]	24.84 ± 0.35 µg/mL	129.84 ± 4.52 µg/mL		
CC(C)Cc1ccc(C(C)C(=O)O)cc1 (stereo not shown) [Ibu, ibuprofen, reference compound]			1.110 ± 0.010	
O=c1c(O)c(-c2ccc(O)c(O)c2)oc2cc(O)cc(O)c12 [Qrc, quercetin, reference compound]	69.25 ± 1.82 µg/mL	149.18 ± 9.27 µg/mL		

Now from value to molecule:

HPSA IC50 ± SD [1]	HRSA IC50 ± SD [2]	RM ± SD [3]	IC50 (human albumin)	SMILES
65.51 ± 0.30 µg/mL	375.06 ± 14.62 µg/mL	1.629 ± 0.009 and 1.629	473 µM	CC(C)Cc1ccc(C(C)C(=O)Nc2nc3ccccc3s2)cc1 (stereo not shown) [Compound 3a, N-(benzo[d]thiazol-2-yl)-2-(4-isobutylphenyl)propanamide]
60.24 µg/mL	285.13 ± 27.44 µg/mL	1.941 ± 0.010 and 1.941	141 µM	CC(C(=O)Nc1nc2ccccc2s1)c1cccc(C(=O)c2ccccc2)c1 (stereo not shown) [Compound 3b, N-(benzo[d]thiazol-2-yl)-2-(3-benzoylphenyl)propanamide]
67.71 µg/mL	317.91 ± 11.61 µg/mL	2.020 ± 0.046 and 2.02	178 µM	COc1ccc2cc(C(C)C(=O)Nc3nc4ccccc4s3)ccc2c1 (stereo not shown) [Compound 3c, N-(benzo[d]thiazol-2-yl)-2-(6-methoxynaphthalen-2-yl)propanamide]
67.22 ± 0.45 µg/mL	551.44 ± 28.48 µg/mL	1.755 ± 0.014 and 1.755	160 µM	CC(C(=O)Nc1nc2ccccc2s1)c1ccc2c(c1)[nH]c1ccc(Cl)cc12 (stereo not shown) [Compound 3d, N-(benzo[d]thiazol-2-yl)-2-(6-chloro-9H-carbazol-2-yl)propanamide]
63.05 ± 0.28 µg/mL	429.59 ± 21.49 µg/mL	1.736 ± 0.015 and 1.736	157 µM	CC(C(=O)Nc1nc2ccccc2s1)c1ccc(-c2ccccc2)c(F)c1 (stereo not shown) [Compound 3e, N-(benzo[d]thiazol-2-yl)-2-(2-fluoro-[1,1′-biphenyl]-4-yl)propanamide]
